Reference: patent US9566312B2, “Cyclic peptides and use as medicines” (priority 2012, dated 2017)
Where two headings read alike, the source gives them in different places. Starred links: 1 amine or outer side, 2 acyl side, 3 side chain; linkers in the order of their positions; H or OH if unused. Non-standard residues stand in square brackets, D forms with d. Residues, ends and D or L forms follow the SMILES beside them. X58 = C[C@H](COCCN1CCN(C2CCC2)CC1)[C@@H](C(=O)[*:2])N(C)[*:1]; X22 = C[C@H](CN1CCN(C2CCC2)CC1)[C@@H](C(=O)[*:2])N(C)[*:1]; X63 = C[C@H](CN1CCN(C2COC2)CC1)[C@@H](C(=O)[*:2])N(C)[*:1]; X8 = COCCN1CCN(C[C@@H](C)[C@@H](C(=O)[*:2])N(C)[*:1])CC1; X14 = C[C@H](CN1CCN(C)CC1)[C@@H](C(=O)[*:2])N(C)[*:1]; MeBmt = C/C=C/C[C@@H](C)[C@@H](O)[C@H](NC)C(=O)O; NMeL = CN[C@@H](CC(C)C)C(=O)O; NMeV = CN[C@H](C(=O)O)C(C)C; dNMeA = CN[C@H](C)C(=O)O; Abu = CC[C@H](N)C(=O)O

Columns and labels:
CYP3A4 = CYP3A4 (Homo sapiens (Human), UniProt P08684); assay: Time-dependent inhibition of CYP3A4;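 note: Two-step in vitro assay, kobs derived from residual CYP3A4 activity versus preincubation time per concentration, then kinact and KI by nonlinear fit of kobs against concentration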
cyclophilin B (CypB) = cyclophilin B (CypB) (Homo sapiens (Human), UniProt P23284); assay: Inhibitor binding to cyclophilin proteins by SPR, CypB; design: unit not given here; conditions: 1:1 binding model
Summary of the method: (§1)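 SPR, single-cycle kinetics. Avi-tagged, mono-biotinylated protein on Biotin CAPture chip; running buffer 10 mM HEPES pH 7.4, 150 mM NaCl, 0.05% P20, 3% DMSO. 1 min contacts at 50 μL/min, 10 min dissociation. kon/koff/KD from 1:1 fit.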

CypF = CypF (Homo sapiens (Human), UniProt P30405); assay: Inhibitor binding to cyclophilin proteins by SPR, CypF; conditions: 1:1 binding model
Summary of the method: as §1

[1] = tested on: peripheral blood mononuclear cells (PBMC); assay: Anti-proliferative or immunosuppressive activity, BrdU incorporation in PHA-stimulated PBMC; assay type: cell-based; conditions: PHA 3 μg/ml, 60 hour compound treatment; read-out: EMV PBMC IC50
Summary of the method: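 Fresh PBMCs from two donors, 30,000 per well in X-VIVO 15 medium, stimulated with 3 μg/ml PHA to drive T-cell proliferation. Proliferation measured as BrdU incorporation into DNA by BrdU ELISA.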

cyclophilin A (CypA) = cyclophilin A (CypA) (Homo sapiens (Human), UniProt P62937); assay: Inhibitor binding to cyclophilin proteins by SPR, CypA; design: unit not given here; conditions: 1:1 binding model;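 note: Single-cycle kinetics on a Biacore T200, compound injected at several concentrations for 1 min each at 50 µL/min, then 10 min dissociation, in HEPES pH 7.4 buffer with 3% DMSO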
[2] = biological target: organic anion transporting polypeptide 1B1 (OATP1B1) (Homo sapiens (Human), UniProt Q9Y6L6); assay: OATP assay in CHO-OATP1B1 cells;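 note: inhibition of probe substrate uptake into the cells, ten minutes exposure, accumulated substrate read by fluorescence once cells were lysed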
[3] = tested on: genotype 1b subgenomic HCV replicon in Huh7.5 cells; assay type: cell-based, hepatitis C virus; conditions: read-out: RPLN-1b IC50
Summary of the method: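 Huh7.5 cells carrying genotype 1b subgenomic HCV replicon with renilla luciferase-neomycin reporter, in phenol red-free DMEM without G418. Luciferase measured after 72 h compound exposure relative to DMSO-treated cells; cytotoxicity (CC50) by Cell Titer-Glo.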

[4] = genotype 1b replicon, 72 h incubation

Chain of CYP3A4 (P08684 whole entry): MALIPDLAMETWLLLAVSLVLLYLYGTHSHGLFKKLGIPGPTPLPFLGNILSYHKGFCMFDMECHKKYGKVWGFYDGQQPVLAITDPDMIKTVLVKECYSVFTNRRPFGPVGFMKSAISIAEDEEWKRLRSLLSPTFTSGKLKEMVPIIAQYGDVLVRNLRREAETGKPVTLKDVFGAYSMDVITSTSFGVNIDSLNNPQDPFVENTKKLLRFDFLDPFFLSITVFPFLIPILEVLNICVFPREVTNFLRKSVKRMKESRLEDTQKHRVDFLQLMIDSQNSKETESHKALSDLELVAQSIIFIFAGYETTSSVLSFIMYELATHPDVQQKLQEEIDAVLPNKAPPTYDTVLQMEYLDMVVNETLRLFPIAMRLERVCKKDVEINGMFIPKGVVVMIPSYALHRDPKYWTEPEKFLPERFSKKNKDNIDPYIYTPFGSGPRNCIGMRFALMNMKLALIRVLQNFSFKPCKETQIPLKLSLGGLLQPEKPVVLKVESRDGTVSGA
Chain of organic anion transporting polypeptide 1B1 (OATP1B1) (Q9Y6L6 whole entry): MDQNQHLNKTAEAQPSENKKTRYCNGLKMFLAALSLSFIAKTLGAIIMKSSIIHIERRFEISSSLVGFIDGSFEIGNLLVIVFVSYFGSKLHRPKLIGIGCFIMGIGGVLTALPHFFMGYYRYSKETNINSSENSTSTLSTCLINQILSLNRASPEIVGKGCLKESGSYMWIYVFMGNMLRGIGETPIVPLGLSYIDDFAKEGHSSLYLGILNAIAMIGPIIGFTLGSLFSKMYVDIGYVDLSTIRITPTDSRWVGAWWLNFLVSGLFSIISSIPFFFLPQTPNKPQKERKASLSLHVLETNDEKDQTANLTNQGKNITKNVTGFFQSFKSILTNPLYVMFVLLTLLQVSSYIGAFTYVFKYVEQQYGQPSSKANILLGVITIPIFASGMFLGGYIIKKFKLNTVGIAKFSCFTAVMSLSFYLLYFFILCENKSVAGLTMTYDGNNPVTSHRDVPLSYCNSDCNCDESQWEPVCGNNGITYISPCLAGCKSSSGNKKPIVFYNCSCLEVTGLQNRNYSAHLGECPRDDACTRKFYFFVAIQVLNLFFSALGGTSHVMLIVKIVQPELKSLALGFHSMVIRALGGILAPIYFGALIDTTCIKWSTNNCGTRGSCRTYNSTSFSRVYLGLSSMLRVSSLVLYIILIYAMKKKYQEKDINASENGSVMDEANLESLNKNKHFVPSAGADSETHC
Chain of cyclophilin B (CypB) (P23284 34-216): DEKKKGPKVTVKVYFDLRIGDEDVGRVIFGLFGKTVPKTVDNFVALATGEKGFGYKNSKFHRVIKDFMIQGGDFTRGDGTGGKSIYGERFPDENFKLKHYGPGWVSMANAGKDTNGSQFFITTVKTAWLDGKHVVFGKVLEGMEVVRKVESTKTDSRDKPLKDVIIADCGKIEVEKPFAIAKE
Chain of CypF (P30405 30-207): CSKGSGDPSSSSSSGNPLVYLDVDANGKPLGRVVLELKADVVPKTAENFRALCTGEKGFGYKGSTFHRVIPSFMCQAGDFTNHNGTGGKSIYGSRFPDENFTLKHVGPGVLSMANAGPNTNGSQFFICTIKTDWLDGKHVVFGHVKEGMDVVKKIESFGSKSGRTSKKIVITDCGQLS
Chain of cyclophilin A (CypA) (P62937 whole entry): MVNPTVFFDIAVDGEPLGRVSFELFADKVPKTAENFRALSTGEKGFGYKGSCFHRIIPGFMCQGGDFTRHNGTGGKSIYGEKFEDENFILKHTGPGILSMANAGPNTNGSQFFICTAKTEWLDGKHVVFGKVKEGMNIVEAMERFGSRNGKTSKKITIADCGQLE

| SMILES | Ki (CYP3A4) [nM] | CypB Kd (cyclophilin B (CypB)) | CypF Kd (CypF) [nM] | IC50 [1] [nM] | CypA Kd (cyclophilin A (CypA)) | IC50 [2] [nM] | IC50 [3, 4] [nM] | KI (inactivation) (CYP3A4) [nM] | IC50 [3] [nM] | NIM TDI kinact/Ki (CYP3A4; probe substrate midazolam) [M⁻¹ s⁻¹] |
| --- | --- | --- | --- | --- | --- | --- | --- | --- | --- | --- |
| C/C=C/C[C@@H](C)[C@@H](O)[C@H]1C(=O)N[C@@H](CC)C(=O)N(C)[C@H](C)C(=O)N(C)[C@@H]([C@H](C)CN2CCN(C)CC2)C(=O)N[C@@H](C(C)C)C(=O)N(C)[C@@H](CC(C)C)C(=O)N[C@@H](C)C(=O)N[C@H](C)C(=O)N(C)[C@@H](CC(C)C)C(=O)N(C)[C@@H](CC(C)C)C(=O)N(C)[C@@H](C(C)C)C(=O)N1C [Compound 2.5.29, 3-[D-Ala]-4-[(2S,3R)-3-methyl-2-(methylamino)-4-(4-methylpiperazin-1-yl)butanoyl]-cyclosporin] (cyclo(A[dA][NMeL][NMeL][NMeV][MeBmt][Abu][dNMeA][X14]V[NMeL])) | > 50000 | 0.7 | 0.6 | 12200 | 1.5 | 7900 | 56 |  |  |  |
| C/C=C/C[C@@H](C)[C@@H](O)[C@H]1C(=O)N[C@@H](CC)C(=O)N(C)[C@H](C)C(=O)N(C)[C@@H]([C@H](C)CN2CCN(C3COC3)CC2)C(=O)N[C@@H](C(C)C)C(=O)N(C)[C@@H](CC(C)C)C(=O)N[C@@H](C)C(=O)N[C@H](C)C(=O)N(C)[C@@H](CC(C)C)C(=O)N(C)[C@@H](CC(C)C)C(=O)N(C)[C@@H](C(C)C)C(=O)N1C [Compound 2.5.11] (cyclo(A[dA][NMeL][NMeL][NMeV][MeBmt][Abu][dNMeA][X63]V[NMeL])) | > 50000 | 1.2 | 1 | 13900 | 1.6 | 1170 | 50 |  |  |  |
| C/C=C/C[C@@H](C)[C@@H](O)[C@H]1C(=O)N[C@@H](CC)C(=O)N(C)[C@H](C)C(=O)N(C)[C@@H]([C@H](C)CN2CCN(C3CCC3)CC2)C(=O)N[C@@H](C(C)C)C(=O)N(C)[C@@H](CC(C)C)C(=O)N[C@@H](C)C(=O)N[C@H](C)C(=O)N(C)[C@@H](CC(C)C)C(=O)N(C)[C@@H](CC(C)C)C(=O)N(C)[C@@H](C(C)C)C(=O)N1C [Compound 2.5.14, 3-[D-Ala]-4[(2S,3R)-2-Amino-4-(4-cyclobutyl-piperazin-1-yl)-butanoyl]-cyclosporin] (cyclo(A[dA][NMeL][NMeL][NMeV][MeBmt][Abu][dNMeA][X22]V[NMeL])) | > 50000 | 0.7 | 0.5 | 8100 | 1.0 | 5200 | 32 |  |  |  |
| C/C=C/C[C@@H](C)[C@@H](O)[C@H]1C(=O)N[C@@H](CC)C(=O)N(C)[C@H](C)C(=O)N(C)[C@@H]([C@H](C)CN2CCN(CCOC)CC2)C(=O)N[C@@H](C(C)C)C(=O)N(C)[C@@H](CC(C)C)C(=O)N[C@@H](C)C(=O)N[C@H](C)C(=O)N(C)[C@@H](CC(C)C)C(=O)N(C)[C@@H](CC(C)C)C(=O)N(C)[C@@H](C(C)C)C(=O)N1C [Compound 2.5.10, 3-[D-Ala]-4[(2S,3R)-2-Amino-4-[4-(2-methoxy-ethyl)-piperazin-1-yl]-3-methyl-butanoyl]-cyclosporin] (cyclo([MeBmt][Abu][dNMeA][X8]V[NMeL]A[dA][NMeL][NMeL][NMeV])) |  | 1.2 | 0.9 | 16800 | 1.2 | 6100 |  | > 50000 | 39 |  |
| C/C=C/C[C@@H](C)[C@@H](O)[C@H]1C(=O)N[C@@H](CC)C(=O)N(C)[C@H](C)C(=O)N(C)[C@@H]([C@H](C)COCCN2CCN(C3CCC3)CC2)C(=O)N[C@@H](C(C)C)C(=O)N(C)[C@@H](CC(C)C)C(=O)N[C@@H](C)C(=O)N[C@H](C)C(=O)N(C)[C@@H](CC(C)C)C(=O)N(C)[C@@H](CC(C)C)C(=O)N(C)[C@@H](C(C)C)C(=O)N1C [Compound 2.8.8, 3-[D-Ala]-4-[(2S,3S)-4-(2-(4-cyclobutylpiperazin-1-yl)ethoxy)-3-methyl-2-(methylamino)butanoyl]-cyclosporin] (cyclo(A[dA][NMeL][NMeL][NMeV][MeBmt][Abu][dNMeA][X58]V[NMeL])) |  | 0.5 | 0.3 | 18900 | 0.5 | 3500 | 35 |  |  | 12 |
